Seven molecules from patent publication US20250177408A1, “INHIBITOR OF INTERACTION BETWEEN YAP/TAZ AND TEAD, PREPARATION THEREOF, PHARMACEUTICAL COMPOSITION THEREOF AND USE THEREOF” (ETERN BIOPHARMA (SHANGHAI) CO., LTD., priority 2022, published 2025) can be followed below.

For assay [1], the target named is YAP-TEAD protein interaction (His-TEAD1 (209-426) protein, Bio-YAP peptide (60-100)) (Homo sapiens, UniProt P28347). As to the kind of experiment: YAP-TEAD protein interaction HTRF experiment. It counts as binding. The note with it: His-TEAD1 (209-426) 10 nM, Bio-YAP peptide 50 nM, read-out: Activity of each compound in blocking YAP-TEAD protein interaction (grades of IC50 values). The procedure: In this example, the YAP-TEAD protein interaction HTRF experiment was used to detect the activity of each compound in blocking the YAP-TEAD protein interaction.
Sequence of YAP-TEAD protein interaction (His-TEAD1 (209-426) protein, Bio-YAP peptide (60-100)) (P28347 209-426): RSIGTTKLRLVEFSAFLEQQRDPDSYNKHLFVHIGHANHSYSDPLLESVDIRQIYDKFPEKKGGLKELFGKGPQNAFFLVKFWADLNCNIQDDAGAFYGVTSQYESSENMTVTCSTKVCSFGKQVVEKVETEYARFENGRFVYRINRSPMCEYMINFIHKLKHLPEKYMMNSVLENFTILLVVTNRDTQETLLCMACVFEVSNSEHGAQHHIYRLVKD
The experiment was carried out according to the following operation steps:
Step 1: His-TEAD1 (209-426) protein was added to a 384-well detection white plate to a final concentration of 10 nM, and buffer was used as the background signal well. The compounds to be tested were subjected to 3-fold dilution and a total of 10 concentration gradients were set up, and each diluted solution was mixed well. A certain volume of the compound to be tested was added to each well separately, 2 replicates were set for each concentration, and the final concentration of DMSO was controlled at 1%. Incubation was carried out at room temperature for 20 minutes. The amino acid sequence of TAED1 (209-426) used in this step is shown in SEQ ID NO: 1:
After mixing evenly, the mixture was incubated at room temperature for 10 minutes.
Step 3: Anti-His-Eu cryptate gold and streptavidin-XL665 were diluted according to the instructions and mixed in equal proportions. A certain volume of the detection reagent was added to the well, and the mixture was incubated at room temperature for 1 hour.
Step 4: The signal was detected using an Envision (Perkin Elmer) microplate reader at an excitation wavelength of 320 nm and emission wavelengths of 665 nm and 620 nm.
Step 5: The signal was calculated based on the ratio of Em665/Em620*10000.
(§1) The inhibition percentage (%) was calculated using the following formula: […]
The half-maximal inhibitory concentration (IC50) values were calculated using GraphPad Prism software.
In general terms: TR-FRET usually uses a lanthanide donor and a delayed reading to cut background.

A further assay has as its system MSTO-211H cells. As to the kind of experiment: Cell proliferation inhibition experiment (CellTiter-Glo). It is filed as cell-based. The note with it: Homo sapiens, 96 hours, read-out: Inhibitory activity of each compound on the proliferation of MSTO-211H cells (grades of IC50 values). The procedure:
In this example, the intracellular ATP was quantitatively determined by the CellTiter-Glo luminescence cell viability detection kit to detect the number of living cells in the culture.
Step 1: MSTO-211H (ATCC, CRL-2081TM) or NCI-H2052 (ATCC, CRL-5915TM) cells were inoculated in a 96-well plate at a density of 1500 cells per well with a volume of 100 μL per well, and the cells were incubated overnight in a 37° C., 5% carbon dioxide incubator. The culture medium used was RPMI1640 medium (GIBCO-A10491-01)+10% FBS (GIBCO-10099141C)+1% penicillin/streptomycin (Pen/Strep) (GIBCO-15070-063).
Step 2: The cells were treated with the compounds to be tested. The compounds to be tested were 3-fold diluted, and a total of 9 concentration gradients were set up; a certain volume of DMSO or the compounds to be tested was added to each well, respectively, and 2 replicates were set up for each concentration, and the final concentration of DMSO was controlled to be no higher than 0.5%. The cells were incubated for 96 hours in a 37° C., 5% carbon dioxide incubator.
Step 3: Cell viability was detected in the control group and treatment group using CellTiter-Glo Luminescent Cell Viability Assay kit (Promega, G7570). 50 μL of CellTiter-Glo was added to each well, mixed well, and incubated at room temperature for 10 minutes. The signal was read using En Vision® Multilabel Plate Reader (Perkin Elmer).
as §1
Using Graphpad Prism software, the IC50 values of the compounds inhibiting the CTG signal of cell proliferation activity was calculated.
(Cellular ATP, detected with luciferase, serves as a proxy for viable cell number.)

On to `Cn1ccc2c(c1=O)Oc1c(cc(C(N)=O)c(-c3c(Cl)c(F)cc4c3C[C@](c3ccccc3)([C@@H]3CCCN3)O4)c1F)O2` (atropisomer, axis not shown) [Compound 135, (S)-8-((S)-5-Chloro-6-fluoro-2-phenyl-2-((S)-pyrrolidin-2-yl)-2,3-dihydrobenzofuran-4-yl)-9-fluoro-2-methyl-1-oxo-1,2-dihydrobenzo[5,6][1,4]dioxo[2,3-c]pyridine-7-carboxamide], for which the IC50 in assay [1] was below 50 nM; with MSTO-211H cells, below 200 nM.

For the molecule `CNC(=O)c1cc2c(c(F)c1-c1c(Cl)c(F)cc3c1C[C@](c1ccccc1)([C@@H]1CCCN1)O3)OCc1nn(C)cc1-2` (atropisomer, axis not shown) [Compound 39, (S)-7-((S)-5-Chloro-6-fluoro-2-phenyl-2-((S)-pyrrolidin-2-yl)-2,3-dihydrobenzofuran-4-yl)-6-fluoro-N,2-dimethyl-2,4-dihydrochromeno[3,4-c]pyrazole-8-carboxamide], the IC50 in assay [1] was below 50 nM; in the assay with MSTO-211H cells it was below 200 nM.

As to `Cn1ncc2c(c1=O)Oc1c(cc(C(N)=O)c(-c3c(Cl)c(F)cc4c3C[C@](c3ccccc3)([C@@H]3CCCN3)O4)c1F)O2` (atropisomer, axis not shown) [Compound 105, (S)-8-((S)-5-Chloro-6-fluoro-2-phenyl-2-((S)-pyrrolidin-2-yl)-2,3-dihydrobenzofuran-4-yl)-9-fluoro-2-methyl-1-oxo-1,2-dihydrobenzo[5,6][1,4]dioxo[2,3-d]pyridazine-7-carboxamide], the IC50 in assay [1] was below 50 nM; in the assay on MSTO-211H cells, below 200 nM.

With `CNC(=O)c1cc2c(c(F)c1-c1c(Cl)c(F)cc3c1CC(c1ccccc1)(C1CCCN1)O3)Oc1c(cnn(C)c1=O)O2` [Compound 124, (S)-8-((S)-5-Chloro-6-fluoro-2-phenyl-2-((S)-pyrrolidin-2-yl)-2,3-dihydrobenzofuran-4-yl)-9-fluoro-N,2-dimethyl-1-oxo-1,2-dihydrobenzo[5,6][1,4]dioxo[2,3-d]pyridazine-7-carboxamide], the IC50 in assay [1] is below 50 nM; in the assay on MSTO-211H cells, below 200 nM.

As for `[2H]C([2H])([2H])n1ncc2c(c1=O)Oc1cc(C(N)=O)c(-c3c(Cl)c(F)cc4c3C[C@](c3ccccc3)([C@@H]3CCCN3)O4)c(F)c1O2` (atropisomer, axis not shown) [Compound 132, (S)-8-((S)-5-Chloro-6-fluoro-2-phenyl-2-((S)-pyrrolidin-2-yl)-2,3-dihydrobenzofuran-4-yl)-9-fluoro-3-(methyl-d3)-4-oxo-3,4-dihydrobenzo[5,6][1,4]dioxo[2,3-d]pyridazine-7-carboxamide], the IC50 was below 50 nM in assay [1] and below 200 nM in the assay on MSTO-211H cells.

In the case of `[2H]C1([2H])CC[C@]([2H])([C@@]2(c3ccccc3)Cc3c(cc(F)c(Cl)c3-c3c(C(=O)NC)cc4c(c3F)Oc3c(cnn(CCC(F)(F)F)c3=O)O4)O2)N1` (atropisomer, axis not shown) [Compound 159, (S)-8-((S)-5-Chloro-6-fluoro-2-phenyl-2-((S)-pyrrolidin-2-yl-2,5,5-d3)-2,3-dihydrobenzofuran-4-yl)-9-fluoro-N-methyl-1-oxo-2-(3,3,3-trifluoropropyl)-1,2-dihydroxybenzo [5,6][1,4]dioxo [2,3-d]pyridazine-7-carboxamide], the IC50 was below 50 nM in assay [1] and below 200 nM in the assay on MSTO-211H cells.

Turning to `NC(=O)c1cc2c(c(F)c1-c1c(Cl)c(F)cc3c1C[C@](c1ccccc1)([C@@H]1CCCN1)O3)Oc1c(cnn(C3CC(F)(F)C3)c1=O)O2` (atropisomer, axis not shown) [Compound 147, (S)-8-((S)-5-Chloro-6-fluoro-2-phenyl-2-((S)-pyrrolidin-2-yl)-2,3-dihydrobenzofuran-4-yl)-2-(3,3-difluorocyclobutyl)-9-fluoro-1-oxo-1,2-dihydrobenzo[5,6][1,4]dioxa[2,3-d]pyridazine-7-carboxamide], the IC50 is below 50 nM in assay [1] and below 200 nM in the assay with MSTO-211H cells.
